Laboratory results: patent publication US7217702B2, “Selective antagonists of A2A adenosine receptors” (Adenosine Therapeutics, LLC, priority 2004, dated 2007)

Each compound was assayed against A2A adenosine receptor (Homo sapiens, UniProt P29274) (assay: Human Ki of the compound tables). Settings: receptor subtype not given.
Type: binding

A2A adenosine receptor, sequence (P29274 whole entry): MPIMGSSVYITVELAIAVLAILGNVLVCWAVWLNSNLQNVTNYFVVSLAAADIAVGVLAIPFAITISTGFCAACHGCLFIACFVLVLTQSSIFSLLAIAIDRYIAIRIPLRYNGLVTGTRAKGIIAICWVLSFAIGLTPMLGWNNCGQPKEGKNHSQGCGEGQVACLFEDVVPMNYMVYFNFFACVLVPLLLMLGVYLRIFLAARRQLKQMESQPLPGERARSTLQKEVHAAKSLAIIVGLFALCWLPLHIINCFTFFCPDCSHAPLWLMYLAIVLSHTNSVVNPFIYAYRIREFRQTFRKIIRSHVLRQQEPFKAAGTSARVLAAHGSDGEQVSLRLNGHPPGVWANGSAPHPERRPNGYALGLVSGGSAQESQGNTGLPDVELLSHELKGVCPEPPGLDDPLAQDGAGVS

Ki	Compound
< 100 nM	C=CCn1cnc2c(NC(CC)CC)nc(C#C[C@]3(O)CCC[C@@H](C)C3)nc21 [Compound 16, 9-Allyl-2-{2-[1(S)-hydroxy-3(R)-methyl-1-cyclohexyl]ethyn-1-yl}-N6-(3-pentyl)adenine]
< 100 nM	CCC(CC)Nc1nc(C#C[C@]2(O)CCC[C@@H](C)C2)nc2c1ncn2CCO [Compound 19, 9-(2-Hydroxyethyl)-2-{2-[1(S)-hydroxy-3(R)-methyl-1-cyclohexyl]ethyn-1-yl}-N6-(3-pentyl)adenine]
< 100 nM	CCCn1cnc2c(NC(CC)CC)nc(C#C[C@]3(O)CCC[C@@H](C)C3)nc21 [Compound 12, 2-{2-[1(S)-Hydroxy-3(R)-methyl-1-cyclohexyl]ethyn-1-yl}-N6-(3-pentyl)-9-propyladenine]
< 100 nM	CCC(CC)Nc1nc(C#C[C@]2(O)CCC[C@@H](C)C2)nc2c1ncn2Cc1cccnc1 [Compound 28, 2-{2-[1(S)-Hydroxy-3(R)-methyl-1-cyclohexyl]ethyn-1-yl}-N6-(3-pentyl)-9-(pyridin-3-ylmethyl)adenine]
< 100 nM	CCC(CC)Nc1nc(C#C[C@]2(O)CCC[C@@H](C)C2)nc2c1ncn2CC1CC1 [Compound 14, 9-Cyclopropylmethyl-2-{2-[1(S)-hydroxy-3(R)-methyl-1-cyclohexyl]ethyn-1-yl}-N6-(3-pentyl)adenine]
< 500 nM	CCC(CC)Nc1nc(C#C[C@]2(O)CCC[C@@H](C)C2)nc2c1ncn2CCCO [Compound 20, 2-{2-[1(S)-Hydroxy-3(R)-methyl-1-cyclohexyl]ethyn-1-yl}-9-(3-hydroxypropyl)-N6-(3-pentyl)adenine]
< 100 nM	C#CCn1cnc2c(N[C@@H](C)CC)nc(C#C[C@]3(O)CCC[C@@H](C)C3)nc21 [Compound 32, N6-[(S)-(+)-sec-Butyl]-2-{2-[1(S)-hydroxy-3(R)-methyl-1-cyclohexyl]ethyn-1-yl}-9-propargyl-adenine]
< 500 nM	CCC(CC)Nc1nc(C#C[C@]2(O)CCC[C@@H](C)C2)nc2c1ncn2CC(C)C [Compound 13, 9-Isobutyl-2-{2-[1(S)-hydroxy-3(R)-methyl-1-cyclohexyl]ethyn-1-yl}-N6-(3-pentyl)adenine]
< 100 nM	C#CCCCn1cnc2c(NC(CC)CC)nc(C#C[C@]3(O)CCC[C@@H](C)C3)nc21 [Compound 18, 2-{2-[1(S)-Hydroxy-3(R)-methyl-1-cyclohexyl]ethyn-1-yl}-N6-(3-pentyl)-9-(pent-4-yne)adenine]
< 500 nM	CCC(CC)Nc1nc(C#C[C@]2(O)CCC[C@@H](C)C2)nc2c1ncn2CC1OCCO1 [Compound 22, 9-([1,3]-Dioxolan-2-ylmethyl)-2-{2-[1(S)-hydroxy-3(R)-methyl-1-cyclohexyl]ethyn-1-yl}-N6-(3-pentyl)adenine]
< 100 nM	CCC(CC)Nc1nc(C#C[C@]2(O)CCC[C@@H](C)C2)nc2c1ncn2Cc1ccccc1 [Compound 27, 9-Benzyl-2-{2-[1(S)-hydroxy-3(R)-methyl-1-cyclohexyl]ethyn-1-yl}-N6-(3-pentyl)adenine]
< 500 nM	CCOC(=O)Cn1cnc2c(NC(CC)CC)nc(C#C[C@]3(O)CCC[C@@H](C)C3)nc21 [Compound 25, 9-(Acetic acid ethyl ester)-2-{2-[1(S)-hydroxy-3(R)-methyl-1-cyclohexyl]ethyn-1-yl}-N6-(3-pentyl)adenine]

More lines, now with the values behind:

Compound	Ki
Nc1nc(C#CC2(O)C3CC4CC(C3)CC2C4)nc2c1ncn2CC1CCCC1 (centres unmarked) [Compound 47, 9-Cyclopentylmethyl-2-{2-[hydroxy-adamantan-2-yl]ethyn-1-yl}adenine]	< 500 nM
Nc1nc(C#CC2(O)C3CC4CC(C3)CC2C4)nc2c1ncn2CCO (centres unmarked) [Compound 52, 2-{2-[Hydroxy-adamantan-2-yl]ethyn-1-yl}-9-(2-hydroxyethyl)adenine]	< 500 nM
C#CCn1cnc2c(N)nc(C#CC3(O)CC4CCC3C4)nc21 (single isomer, unassigned) [Compound 60, 2-{2-[Hydroxy-norbornan-2-yl]ethyn-1-yl}-9-propargyladenine]	< 100 nM
C[C@@H]1CCC[C@@](O)(C#Cc2nc(N)c3ncn(CC#N)c3n2)C1 [Compound 4, 9-Acetonitrile-2-{2-[1(S)-hydroxy-3(R)-methyl-1-cyclohexyl]ethyn-1-yl}adenine]	< 100 nM
CCC(CC)Nc1nc(C#C[C@]2(O)CCC[C@@H](C)C2)nc2c1ncn2Cc1c(C)noc1C [Compound 30, 9-(3,5-Dimethyl-isoxazol-4-ylmethyl)-2-{2-[1(S)-hydroxy-3(R)-methyl-1-cyclohexyl]ethyn-1-yl}-N6-(3-pentyl)adenine]	< 100 nM
CCn1cnc2c(N)nc(C#CC3(O)C4CC5CC(C4)CC3C5)nc21 (centres unmarked) [Compound 40, 9-Ethyl-2-{2-[hydroxy-adamantan-2-yl]ethyn-1-yl}adenine]	< 100 nM
Cn1cnc2c(N)nc(C#CC3(O)C4CC5CC(C4)CC3C5)nc21 (centres unmarked) [Compound 39, 2-{2-[Hydroxy-adamantan-2-yl]ethyn-1-yl}-9-methyladenine]	< 100 nM
CCCn1cnc2c(N)nc(C#CC3(O)C4CC5CC(C4)CC3C5)nc21 (centres unmarked) [Compound 41, 2-{2-[Hydroxy-adamantan-2-yl]ethyn-1-yl}-9-propyladenine]	< 100 nM
CCC(CC)Nc1nc(C#C[C@]2(O)CCC[C@@H](C)C2)nc2c1ncn2C1CCCC1 [Compound 15, 9-Cyclopentyl-2-{2-[1(S)-hydroxy-3(R)-methyl-1-cyclohexyl]ethyn-1-yl}-N6-(3-pentyl)adenine]	< 100 nM
C#CCn1cnc2c(NCc3ccccn3)nc(C#C[C@]3(O)CCC[C@@H](C)C3)nc21 [Compound 37, 2-{2-[1(S)-Hydroxy-3(R)-methyl-1-cyclohexyl]ethyn-1-yl}-9-(propargyl)-N6-(pyridin-2-ylmethyl)adenine]	< 100 nM
C[C@@H]1CCC[C@@](O)(C#Cc2nc(N)c3ncn(CC#Cc4cccs4)c3n2)C1 [Compound 10]	< 500 nM
Nc1nc(C#CC2(O)C3CC4CC(C3)CC2C4)nc2c1ncn2CC1CCC1 (centres unmarked) [Compound 46, 9-Cyclobutylmethyl-2-{2-[hydroxy-adamantan-2-yl]ethyn-1-yl}adenine]	< 100 nM
C#CCn1cnc2c(N[C@@H](C)c3cccc4ccccc34)nc(C#C[C@]3(O)CCC[C@@H](C)C3)nc21 [Compound 35, 2-{2-[1(S)-Hydroxy-3(R)-methyl-1-cyclohexyl]ethyn-1-yl}-N6-[(s)-(−)-alpha-napthalen-1-yl-ethyl]-9-(propargyl)adenine]	< 500 nM
Nc1nc(C#CC2(O)C3CC4CC(C3)CC2C4)nc2c1ncn2C1CCC1 (centres unmarked) [Compound 49, 9-Cyclobutyl-2-{2-[hydroxy-adamantan-2-yl]ethyn-1-yl}adenine]	< 100 nM
C#CCn1cnc2c(N)nc(C#CC3(O)CC4CCC3C4)nc21 (single isomer, unassigned) [Compound 61, 2-{2-[Hydroxy-norbornan-2-yl]ethyn-1-yl}-9-propargyladenine]	< 100 nM
C#CCn1cnc2c(NCc3cccc(OC)c3)nc(C#C[C@]3(O)CCC[C@@H](C)C3)nc21 [Compound 36, 2-{2-[1(S)-Hydroxy-3(R)-methyl-1-cyclohexyl]ethyn-1-yl}-N6-(3-methoxybenzyl)-9-(propargyl)adenine]	< 100 nM
CC[C@H](C)Nc1nc(C#C[C@]2(O)CCC[C@@H](C)C2)nc2c1ncn2Cc1c(C)noc1C [Compound 33, N6-[(s)-(+)-sec-Butyl]-9-(3,5-dimethyl-isoxazol-4-ylmethyl)-2-{2-[1(S)-hydroxy-3(R)-methyl-1-cyclohexyl]ethyn-1-yl}adenine]	< 100 nM
CCCCCCn1cnc2c(N)nc(C#CC3(O)C4CC5CC(C4)CC3C5)nc21 (centres unmarked) [Compound 42, 9-Hexyl-2-{2-[hydroxy-adamantan-2-yl]ethyn-1-yl}adenine]	< 1000 nM
C[C@@H]1CCC[C@@](O)(C#Cc2nc(N)c3ncn(CC4CC4)c3n2)C1 [Compound 1, 9-Cyclopropylmethyl-2-{2-[1(S)-hydroxy-3(R)-methyl-1-cyclohexyl]ethyn-1-yl}adenine]	< 100 nM
CC(C)Cn1cnc2c(N)nc(C#CC3(O)C4CC5CC(C4)CC3C5)nc21 (centres unmarked) [Compound 44, 2-{2-[Hydroxy-adamantan-2-yl]ethyn-1-yl}-9-isobutyl-adenine]	< 500 nM
Cc1noc(C)c1Cn1cnc2c(N)nc(C#C[C@]3(O)CCC[C@@H](C)C3)nc21 [Compound 8, 9-(3,5-Dimethyl-isoxazol-4-ylmethyl)-2-{2-[1(S)-hydroxy-3(R)-methyl-1-cyclohexyl]ethyn-1-yl}adenine]	< 100 nM
Nc1nc(C#CC2(O)C3CC4CC(C3)CC2C4)nc2c1ncn2CC1CC1 (centres unmarked) [Compound 45, 9-Cyclopropylmethyl-2-{2-[hydroxy-adamantan-2-yl]ethyn-1-yl}adenine]	< 100 nM
C#CCCn1cnc2c(N)nc(C#CC3(O)C4CC5CC(C4)CC3C5)nc21 (centres unmarked) [Compound 62, 9-(But-3-ynyl)-2-{2-[hydroxy-adamantan-2-yl]ethyn-1-yl}adenine]	< 100 nM
C#CCn1cnc2c(N)nc(C#CCC3CCN(C(=O)OC)CC3)nc21 [Compound 63, 2-{3-[1-(Methoxycarbanoyl)piperidin-4-yl]propyn-1-yl}-9-propargyladenine]	< 100 nM
Nc1nc(C#CC2(O)C3CC4CC(C3)CC2C4)nc2c1ncn2CCCO (centres unmarked) [Compound 53]	< 500 nM
C[C@@H]1CCC[C@@](O)(C#Cc2nc(NCC(c3ccccc3)c3ccccc3)c3ncn(C)c3n2)C1 [Compound 34, N6-(2-Diphenylethyl)-2-{2-[1(S)-hydroxy-3(R)-methyl-1-cyclohexyl]ethyn-1-yl}-9-methyladenine]	< 500 nM
